The term IC50 denotes the concentration at which inhibition is half-maximal.

The results in this text go back to ChEMBL document CHEMBL1127175, “4-hydroxyphenoxymethylene bisphosphonic acid derivatives: potent, non-hydrolysable inhibitors of MYO-inositol monophosphatase” (Bioorg Med Chem Lett, 1993).

This test deals with T1, Inositol monophosphatase 1 (Bos taurus, UniProt P20456).
T1 sequence (P20456 whole entry): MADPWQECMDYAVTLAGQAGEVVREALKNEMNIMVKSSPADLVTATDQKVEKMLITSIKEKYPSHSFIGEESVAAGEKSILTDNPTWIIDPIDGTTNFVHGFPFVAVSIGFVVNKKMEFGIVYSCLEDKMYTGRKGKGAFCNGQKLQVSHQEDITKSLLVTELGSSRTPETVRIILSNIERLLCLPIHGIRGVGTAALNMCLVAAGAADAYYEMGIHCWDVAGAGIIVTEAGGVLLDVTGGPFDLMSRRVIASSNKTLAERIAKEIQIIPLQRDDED
As to the kind of experiment: Tested for the inhibitory activity against recombinant bovine brain myo-inositol monophosphatase.

Consider `CC(Oc1ccc(O)cc1)(P(=O)(O)O)P(=O)(O)O` [L-690330], for which the half-inhibitory concentration (IC50) turned out to be 0.33 µM.

As for `O=P(O)(O)C(Cc1ccccc1)(O[C@@H]1CC[C@@H](O)C[C@@H]1O)P(=O)(O)O`, the half-inhibitory concentration (IC50) is 19.2 µM.

Consider `O=C(NCc1cccc(CC(Oc2ccc(O)cc2)(P(=O)(O)O)P(=O)(O)O)c1)c1ccc(Cl)c(Cl)c1`, for which the 50% inhibitory concentration (IC50) is 0.08 µM.

In the case of `CC(O[C@@H]1CC[C@@H](O)C[C@@H]1O)(P(=O)(O)O)P(=O)(O)O`, the concentration for half-maximal inhibition (IC50) amounted to 4 µM.

In the case of `CC(Oc1ccc(O)cc1O)(P(=O)(O)O)P(=O)(O)O`, the IC50 came out at 4.4 µM.

As to `O=P(O)(O)C(Cc1ccccc1)(Oc1ccc(O)cc1)P(=O)(O)O`, the IC50 was determined as 0.5 µM.

For the compound `O=P(O)(O)C(Oc1ccc(O)cc1O)P(=O)(O)O`, the 50% inhibitory concentration (IC50) was found to be 40.8 µM.

In the case of `O=P(O)(O)C(CCCCCCc1ccccc1)(O[C@@H]1CC[C@@H](O)C[C@@H]1O)P(=O)(O)O`, the half-maximal inhibitory concentration (IC50) came out at 2.5 µM.

As for `O=P(O)(O)C(Oc1ccc(O)cc1)P(=O)(O)O`, the half-maximal inhibitory concentration (IC50) worked out at 27 µM.

Regarding `O=P(O)(O)C(O)(Cc1ccc(Cl)c(Cl)c1)P(=O)(O)O`, the IC50 was 23 µM.
